From patent publication US12728120B2, “Prevention or treatment of brain disease and adverse effects of cholinesterase inhibitors” (DR. NOAH BIOTECH INC., priority 2021, dated 2026)
Counter-ions that a name gives are not always drawn.

Assays:
microglia cells (BV2) = test: NO assay (Griess reagent) in LPS-treated BV2 microglial cells; format: cell-based; details: donepezil HCl alone, antioxidant alone or combination, FIG. 8
Protocol: (§1) Briefly, BV2 microglial cells were plated in 96-well plates at 2×10^5 cells/well in DMEM high glucose medium (Welgene, LM001-05) supplemented with 10% fetal bovine serum (FBS; YOUNG IN, US-FBS-500) and 1% penicillin-streptomycin (P-S; Gibco, 15070063).
After incubation, NO levels were quantified from half of the cell media using a Griess reagent assay kit (Promega, G2930). Colorimetric changes in the media and Griess reagent mixture were measured using a Synergy HTX Multi-Mode reader (Biotek) at 540 nm. All data were analyzed using the GraphPad Prism 9 software. Statistical significance was assessed using a one-way ANOVA or two-way ANOVA followed by Dunnett's post-hoc analysis unless otherwise noted. All data are presented as the mean±SEM, and significance was set at P<0.05. […] (*P<0.05, **P<0.01, ***P<0.001, ****P<0.0001, one-way ANOVA).

PSD-95 = PSD-95 expression (western blot) in primary cultured neurons; format: cell-based, mice; details: mouse primary neuro-glia culture, 4 days treatment, β-actin normalized; FIG. 14B
Protocol: (§2) To evaluate the synaptic plasticity, primary neuro-glia culture was prepared from cortices of embryonic day 16 C57/BL6 mice. Cells were collected by mechanical dissection and chemical dissociation with trypsin and DNase treatment and cultured in Neurobasal (NB) and MEM media supplemented with 1% B-27, 2 mM L-glutamine, 5% Fetal Bovine Serum, 5% Horse Serum, 1×MEM-NEAA (non-essential amino acids), and 1% Penicillin-Streptomycin (PS). Cells were cultured in Poly-D-Lysine+Laminin-coated 6-well plates at 2×10^6 cells/well in growth media. After 3 days in vitro (DIV 3), media was changed to NB media supplemented with 2% B-27, 2 mM L-glutamine, and 1% PS. […] Protein was resolved by 8% SDS-PAGE electrophoresis, transferred to polyvinylidene difluoride membranes and blocked with 5% non-fat dry milk for 1 hour at RT. Membrane was immunoblotted using following antibodies; primary antibody: PSD-95 (Abcam, ab18258, 1:2,000), phospho-CREB (Millipore, #06-519, 1:2,000), β-actin (Cell signaling, #3700, 1:3,000), and secondary antibody:HRP-conjugated anti-mouse IgG (AbFrontier, LF-SA8001, 1:5,000), HRP-conjugated anti-rabbit IgG (AbFrontier, LF-SA8002, 1:5,000). Signal was visualized by chemiluminescence methods using ECL solution and imaged using ImageQuant LAS 500 system. […]

[1] = test system: cerebral infarction-reperfusion model in Sprague-Dawley rats; test: Rotarod test in MCAO-reperfusion stroke model; format: in vivo; details: for Rotarod score (fall latency normalized to day 1), mean value: I.V. daily, FIG. 15
Protocol: The Rotarod test was performed on the 1, 3, 7, 14, and 21 days after 45 minutes-MCAO (middle cerebral artery occlusion)-reperfusion modelling to induced ischemia (Brain Stroke). […] The animal was carefully placed on a rotating rod (JD-A-07RA5, BS Technolab Inc., Korea) and the time (second) that animal was fallen was measured. The speed of rotating rod was increased from 4 rpm to 40 rpm for 300 second. […] For rotarod latency test, Nested one-way ANOVA and Two-way ANOVA was used to analyze significance between the groups on each day. Statistical analysis was performed using Prism 9 (GraphPad Software Inc., San Diego, CA, USA) and statistical significance was set at a P-value of less than 0.05.

neuronal cells (SH-SY5Y) = test: ROS production (DCF-DA) in H2O2-treated SH-SY5Y cells; format: cell-based; details: 100 μM H2O2 24 hours, DONE alone 5 uM, NAC alone 5 uM, NDC = DONE 2.5 uM + NAC 2.5 uM, FIG. 3
Protocol: SH-SY5Y cells were plated in 96 well plates at 2×10^5 cells/well in DMEM supplemented with 10% fetal bovine serum (FBS; YOUNG IN, US-FBS-500) and 1% penicillin-streptomycin (P-S; Gibco, 15070063). Six hours after seeding, SH-SY5Y cells were treated with 100 μM H2O2 for 24 hours (Sigma, #323381) followed by incubation with DONE alone, NAC alone, and combination of DONE and NAC. After incubation, ROS activity in the cell was measured by adding DCF-DA (Thermo, #D399) containing media. Absorbance was measured using a Synergy HTX Multi-Mode reader (Biotek) with 465 nm excitation and 540 nm emission. Measured fluorescence was normalized to control as follows: (drug-treated group OD−DCF-DA alone O.D)/(control O.D−DCF alone O.D)*100.

pCREB = pCREB expression (western blot) in primary cultured neurons; format: cell-based, mice; details: mouse primary neuro-glia culture, 4 days treatment, β-actin normalized; FIG. 14C
Protocol: as §2

neural progenitor cells = test: Number of viable cells (cytotoxicity) in neural progenitor cells; details: with donepezil, NAC or their combination; FIG. 13B
IL-6 = IL-6 ELISA in LPS-treated BV2 microglial cells; format: cell-based, mouse; details: BV2, 1 μg/ml LPS, 18 hours; FIG. 4
Protocol: as §1

EPO = EPO expression in brain (western blot), MCAO-reperfusion model; format: in vivo, Sprague-Dawley rats; details: 21 days after MCAO
Protocol: Brains were homogenized in lysate buffer with protease inhibitor cocktail on ice. […] Protein concentration was measured using DC (Bio-rad, #5000112) protein assay. Samples were loaded using the SDS-PAGE system (Bio-rad, #1658004 and #1645052) and transferred onto nitrocellulose membranes (Bio-rad, #17001917 and #1704272). The membranes were blocked for 1 hour at room temperature with Tris-buffered saline-Tween20 (TBS-T) containing 5% skim milk and then incubated with pAKT antibody (Cell signaling, #4060), AKT primary antibody (Santacruz, SC-81434), EPO primary antibody (SCBT, SC-5290), ERK (CST, #9102), pERK (CST, #9101) and GAPDH (Bioworld, #MBOO1H) in 5% skim milk overnight at 4° C. Next day, the membranes were washed 3 times in TBS-T for 5 minutes, incubated with horseradish peroxidase-conjugated (HRP-conjugated) secondary antibody or fluorescence conjugated secondary antibody for 1-2 hours, and then washed 3 times in TBS-T for 5 minutes again. After final wash, the membranes were developed for chemiluminescence or fluorescence system. The signals of chemiluminescence or fluorescence were acquired and quantified by using ECL solution (Bio-rad, #1705062), iBright 1500 (Invitrogen, #CL1500), and Odyssey CLx (LI-COR, #CLX-2383) imaging system.

PI3K-AKT pathway = test: pAKT expression in brain (western blot), MCAO-reperfusion model; format: in vivo, Sprague-Dawley rats
Protocol: (§3) At 21 days after 45-minutes-MCAO-reperfusion modeling, brains were collected to perform a western blot assay. Brains were homogenized in lysate buffer with protease inhibitor cocktail on ice. Each sample was centrifuged at 13,000 rpm and 4° C. for 30 minutes and the supernatant was used for further experiments. Protein concentration was measured using DC (Bio-rad, #5000112) protein assay. Samples were loaded using the SDS-PAGE system (Bio-rad, #1658004 and #1645052) and transferred onto nitrocellulose membranes (Bio-rad, #17001917 and #1704272). The membranes were blocked for 1 hour at room temperature with Tris-buffered saline-Tween20 (TBS-T) containing 5% skim milk and then incubated with pAKT antibody (Cell signaling, #4060), AKT primary antibody (Santacruz, SC-81434), EPO primary antibody (SCBT, SC-5290), ERK (CST, #9102), pERK (CST, #9101) and GAPDH (Bioworld, #MBOO1H) in 5% skim milk overnight at 4° C. Next day, the membranes were washed 3 times in TBS-T for 5 minutes, incubated with horseradish peroxidase-conjugated (HRP-conjugated) secondary antibody or fluorescence conjugated secondary antibody for 1-2 hours, and then washed 3 times in TBS-T for 5 minutes again. After final wash, the membranes were developed for chemiluminescence or fluorescence system. The signals of chemiluminescence or fluorescence were acquired and quantified by using ECL solution (Bio-rad, #1705062), iBright 1500 (Invitrogen, #CL1500), and Odyssey CLx (LI-COR, #CLX-2383) imaging system.

ERK pathway = test: pERK expression in brain (western blot), MCAO-reperfusion model; format: in vivo, Sprague-Dawley rats
Protocol: as §3

[2] = test system: ReN VM-immortalized cells, human neural progenitor cell line; test: HB9 motor neuron marker expression in neural progenitor cells (differentiation); format: cell-based; details: alone or combined, 3 days
Protocol: ReN VM-immortalized cells, human neural progenitor cell line, were used (EMD Millipore, SCC008). These neural progenitor cells can differentiate into motor neurons and glial cells. The degree of differentiation of neural progenitor cells into motor neurons was determined by analysing the level of HB9, a specific motor neuron marker. ReN VM cells were cultured on laminin (Corning, 354232)-coated 75T Flask in the growth medium, which is DMEM/F12 (Welgene, #LM002-08) supplemented with 20 ng/ml basic fibroblast growth factor (bFGF; Gibco, 15750-060), 20 ng/ml epidermal growth factor (EGF; Sigma, E9644), serum-free B27 (Gibco, 17504-044), 10 KU heparin (Sigma, H3393), and 1% gentamicin (Gibco, 17504-044). Cells were plated in 96-well plates at 7000 cells/well in the growth media in a 37° C./5% CO2 incubator for 3 days. […] Immunostaining was performed against HB9, a specific motor neuronal marker, to assess the population of motor neurons. Briefly, drug-treated ReN VM cells were fixed in 10% formalin solution for 20 minutes and permeabilized in 0.1% TritonX-100. […] Fluorescence intensity levels were measured using an Odyssey® DLx Infrared Imaging System (LI-COR, CLS-2383). All data were analyzed using the GraphPad Prism 9 software. Statistical significance was assessed using a one-way ANOVA or two-way ANOVA followed by Dunnett's post-hoc analysis unless otherwise noted. […]

[3] = 1 mpk donepezil HCl or 120 mpk NAC used alone, FIG. 17
[4] = brain, 21 days after MCAO, 1 mpk donepezil HCl, 120 mpk NAC, alone or combined

O=C(O)CCCCC1CCSS1 (stereo not shown) [Thioctic acid]
NO, mean value relative to LPS (100%) (microglia cells (BV2)): 68.45%

COc1ccc([C@H]2OC[C@H]3[C@@H]2CO[C@H]3c2ccc(O[C@@H]3O[C@H](CO)[C@@H](O)[C@H](O)[C@H]3O)c(OC)c2)cc1OC [Forsythin]
NO, mean value relative to LPS (100%) (microglia cells (BV2)): 89.97%

COc1cc2c(cc1OC)C(=O)C(CC1CCN(Cc3ccccc3)CC1)C2 (stereo not shown) [Donepezil-HCl, donepezil]
PSD-95 expression, mean value normalized to untreated control (CTL 1.0) (PSD-95): 1.20 | Rotarod score normalized to VEH (100%) ([1]; day 3 after MCAO): 93.92% | Rotarod score (fall latency normalized to day 1), mean value ([1]; day 3 after MCAO): 15.77 | Rotarod score (fall latency normalized to day 1), mean value ([1]; day 7 after MCAO): 30.61 | Rotarod score normalized to VEH (100%) ([1]; day 14 after MCAO): 81.08% | Rotarod score (fall latency normalized to day 1), mean value ([1]; day 14 after MCAO): 39.30 | Rotarod score normalized to VEH (100%) ([1]; day 21 after MCAO): 77.68% | Rotarod score (fall latency normalized to day 1), mean value ([1]; day 21 after MCAO): 49.53 | ROS, mean value normalized to control (CTL 100%) (neuronal cells (SH-SY5Y)): 76.52% | pCREB expression, mean value normalized to untreated control (CTL 1.0) (pCREB): 0.92

CO[C@H]1C[C@@H]2CC[C@@H](C)[C@@](O)(O2)C(=O)C(=O)N2CCCC[C@H]2C(=O)O[C@H]([C@H](C)C[C@@H]2CC[C@@H](O)[C@H](OC)C2)CC(=O)[C@H](C)/C=C(\C)[C@@H](O)[C@@H](OC)C(=O)[C@H](C)C[C@H](C)/C=C/C=C/C=C/1C [rapamycin]
cytotoxicity on addition of rapamycin (neural progenitor cells): did not induce cytotoxicity

CC(=O)N[C@@H](CS)C(=O)O [NAC, N-acetylcysteine]
PSD-95 expression, mean value normalized to untreated control (CTL 1.0) (PSD-95): 1.43 | IL-6, mean value relative to LPS (100%) (IL-6): 95.48% | Rotarod score normalized to VEH (100%) ([1]; day 3 after MCAO): 139.30% | Rotarod score (fall latency normalized to day 1), mean value ([1]; day 3 after MCAO): 23.39 | Rotarod score (fall latency normalized to day 1), mean value ([1]; day 7 after MCAO): 38.01 | Rotarod score normalized to VEH (100%) ([1]; day 14 after MCAO): 83.86% | Rotarod score (fall latency normalized to day 1), mean value ([1]; day 14 after MCAO): 40.65 | Rotarod score normalized to VEH (100%) ([1]; day 21 after MCAO): 44.96% | Rotarod score (fall latency normalized to day 1), mean value ([1]; day 21 after MCAO): 28.67 | EPO expression normalized to VEH (100%) (EPO): 151.66% | EPO expression, mean value (EPO; FIG. 18): 172.43 | activation of the PI3K-AKT pathway (PI3K-AKT pathway; [3]): did not activate | pAKT expression normalized to VEH (100%) (PI3K-AKT pathway; [4]): 55.88% | pAKT expression, mean value (PI3K-AKT pathway; brain, 21 days after MCAO, 1 mpk donepezil HCl, 120 mpk NAC, alone or combined, FIG. 17A): 44.23 | activation of the ERK pathway (ERK pathway; [3]): did not activate | pERK expression normalized to VEH (100%) (ERK pathway; [4]): 189.77% | pERK expression, mean value (ERK pathway; brain, 21 days after MCAO, 1 mpk donepezil HCl, 120 mpk NAC, alone or combined, FIG. 17B): 99.50 | ROS, mean value normalized to control (CTL 100%) (neuronal cells (SH-SY5Y)): 88.93% | pCREB expression, mean value normalized to untreated control (CTL 1.0) (pCREB): 1.13 | HB9 expression level, mean value relative to CTL (100%) ([2]; donepezil 0.1 μM, NAC 12 μM, FIG. 9A): 116.9% | HB9 expression level, mean value relative to CTL (100%) ([2]; donepezil 1 μM, NAC 120 μM, FIG. 9B): 125.36%
